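Each compound was tested at five concentrations against cells in 96-well plates for 48 hours. GI50 marks 50% less growth. TGI marks complete inhibition of growth.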
Columns and labels:
Assay in all cases: NCI anticancer screen, dose series, 48 h
A498 renal = tested on: A498 renal
DU-145 prostate = tested on: DU-145 prostate
HOP-62 NSCLC = tested on: HOP-62 NSCLC
MALME-3M melanoma = tested on: MALME-3M melanoma
MDA-MB-435 = tested on: MDA-MB-435
OVCAR-4 ovarian = tested on: OVCAR-4 ovarian
OVCAR-8 ovarian = tested on: OVCAR-8 ovarian
SF-539 CNS = tested on: SF-539 CNS
SK-MEL-5 melanoma = tested on: SK-MEL-5 melanoma
T-47D breast = tested on: T-47D breast

Compound	GI50 (A498 renal)	TGI (A498 renal)	GI50 (DU-145 prostate)	TGI (DU-145 prostate)	GI50 (HOP-62 NSCLC)	TGI (HOP-62 NSCLC)	GI50 (MALME-3M melanoma)	TGI (MALME-3M melanoma)	GI50 (MDA-MB-435)	TGI (MDA-MB-435)	GI50 (OVCAR-4 ovarian)	TGI (OVCAR-4 ovarian)	GI50 (OVCAR-8 ovarian)	TGI (OVCAR-8 ovarian)	GI50 (SF-539 CNS)	TGI (SF-539 CNS)	GI50 (SK-MEL-5 melanoma)	TGI (SK-MEL-5 melanoma)	GI50 (T-47D breast)	TGI (T-47D breast)
Cc1c(C(N)=O)sc2nc(C)n(/N=c3\scc(-c4ccccc4)n3Cc3ccccc3)c(=O)c12	2.53 µM	8.97 µM	3.9 µM	> 100 µM	2.82 µM	9.47 µM	2.18 µM	> 100 µM	2.89 µM	12.5 µM	2.5 µM	> 100 µM	3.49 µM	> 100 µM	4.02 µM	> 100 µM	1.81 µM	3.75 µM	3.25 µM	> 100 µM
CSc1nc(SC)c2c(C)cn(COCCOC(=O)c3ccccc3)c2n1		> 100 µM		> 100 µM		> 100 µM		> 100 µM		> 100 µM		> 100 µM		> 100 µM		> 100 µM		> 100 µM		94.5 µM
Cn1c(I)c(C#C[Si](C)(C)C)c(=O)[nH]c1=O	16.4 µM	30.2 µM	4.11 µM	15.1 µM	17.6 µM	32.4 µM	1.96 µM	4.25 µM	3.1 µM	11.5 µM	1.97 µM	3.59 µM	12.1 µM	25.6 µM	9.28 µM	21.4 µM	17.1 µM	31 µM	2.54 µM	8 µM
COc1ccc(-c2c(-c3ccc(C#N)c(F)c3)nc(N3CCC(N)CC3)n(C)c2=O)cc1F			25.5 µM	> 100 µM	17.1 µM	> 100 µM	13.4 µM	27.5 µM	14.4 µM	28.9 µM	29.3 µM	> 100 µM	33.6 µM	> 100 µM	13.8 µM	29.3 µM	14.9 µM	28.4 µM	14 µM	46.3 µM
O=C1Cc2cc(CCN3CCNCC3)c(Cl)cc2N1	2.85 µM	> 100 µM	19.9 µM	> 100 µM	19.3 µM	> 100 µM			2.77 µM	14.2 µM	87.8 µM	> 100 µM	36.8 µM	> 100 µM	> 100 µM	> 100 µM	5.33 µM	> 100 µM	29.1 µM	> 100 µM
CCc1c(C)c2cc(-n3c(-c4ccc(OC)cc4)csc3=N)c(O)c(C)c2oc1=O	1.94 µM	8.72 µM	3 µM	12.3 µM	1.67 µM	8.53 µM	1.73 µM	6.26 µM	0.355 µM	4.16 µM	1.52 µM	4.43 µM	2.24 µM	8.28 µM	2.14 µM	7.25 µM			0.551 µM	4.24 µM
COc1ccc(/C=C/c2ccnc3ccccc23)cc1OC		23.6 µM		26.6 µM		28.5 µM		30.7 µM		28.6 µM		24.8 µM				30 µM		28 µM		74.5 µM
C(=N\Nc1ccc2ccccc2n1)/c1ccccn1	0.561 µM	15.4 µM	0.374 µM	> 37.7 µM	0.431 µM	6.98 µM	1.35 µM	8.34 µM	1.01 µM	> 52.7 µM	0.363 µM	> 100 µM	0.463 µM	> 100 µM	0.362 µM	6.83 µM	0.694 µM	3.67 µM	0.574 µM	38.5 µM
COc1ccc2c(c1)/C(=N/OC(C)=O)c1c-2c(OC)nc2ccccc12	> 100 µM	> 100 µM	> 100 µM	> 100 µM	83.7 µM	> 100 µM	57.3 µM	> 100 µM	> 100 µM	> 100 µM	58.3 µM	> 100 µM	> 100 µM	> 100 µM	72.9 µM	> 100 µM	> 100 µM	> 100 µM	27.7 µM	> 100 µM
Fc1ccc(Nc2nc(Nc3ccc(-c4nc5ccccc5[nH]4)cc3)c3cn[nH]c3n2)cc1	14.6 µM	27.7 µM	1.87 µM	3.75 µM	2.04 µM	5.02 µM	1.72 µM	3.51 µM	1.71 µM	3.23 µM	1.6 µM	3.6 µM	2.37 µM	5.37 µM	1.77 µM	3.48 µM	9.94 µM	21.9 µM	1.9 µM	5 µM
NS(=O)(=O)c1ccc(N=Nc2c[nH]c(=O)c(O)c2)cc1		> 100 µM		> 100 µM		> 100 µM		82.4 µM		> 100 µM		> 100 µM		> 100 µM		> 100 µM		> 100 µM		> 100 µM
N#Cc1c(N)nc(N2CCOCC2)c(C#N)c1-c1c(Cl)cccc1Cl	3.75 µM	23.1 µM	16.9 µM	> 100 µM	3.52 µM	17.8 µM	3.72 µM	13.5 µM	1.57 µM	3.8 µM	13.1 µM	> 100 µM	14.2 µM	63.2 µM	12.2 µM	49.8 µM	7.27 µM	21 µM	3.43 µM	10.1 µM
Oc1[nH]c2ccccc2c1C=Nc1ccc(-n2cncn2)cc1	> 16.7 µM	> 25 µM	> 22.5 µM	> 25 µM	> 13.8 µM	> 22.2 µM	> 16 µM	> 25 µM	> 25 µM	> 25 µM	> 18.9 µM	> 25 µM	13.9 µM	> 25 µM	> 25 µM	> 25 µM	8.74 µM	> 25 µM	8.79 µM	> 21.9 µM
